Consider 12 compounds from article PMC9833666, “Designing and identifying β-hairpin peptide macrocycles with antibiotic potential” (Science Advances, 2023).

Bridge positions count the residues as written; N and C are the ends. Peptide text beside a SMILES is read from it.

This experiment has as its system Escherichia coli W3110. It counts as cell-based. The settings on record: for Ec W3110 MIC MH: E. coli W3110, MH medium; for Ec W3110 MIC RPMI: E. coli W3110, RPMI medium.

Turning to `CC[C@H](C)[C@@H]1NC(=O)[C@H](CCCCN)NC(=O)[C@H](CC(C)C)NC(=O)[C@H](CCCNC(=N)N)NC(=O)CNC(=O)CNC(=O)[C@H](CCCNC(=N)N)NC(=O)[C@H](CC(N)=O)NC(=O)[C@H](CC(N)=O)NC(=O)[C@H](C(C)C)NC(=O)[C@H](CCCNC(=N)N)NC(=O)[C@H](C(C)C)NC(=O)[C@H](CCCNC(=N)N)NC(=O)[C@H](C(C)C)NC(=O)[C@@H](N)CSSC[C@@H](C(=O)O)NC(=O)[C@H](C(C)C)NC(=O)[C@H](CCC(N)=O)NC(=O)[C@H](C(C)C)NC(=O)[C@H](CO)NC1=O` [SySA-83] (H-CVRVRVNNRGGRLKISVQVC-OH; disulfide 1-20; N-terminus and C-terminus assumed), the Ec W3110 MIC MH stood at 128 µg/mL, the Ec W3110 MIC RPMI was 16 µg/mL, the “W3110 MIC MH” value worked out at 128 µg/mL and the “W3110 MIC RPMI” value is 16 µg/mL.
In the case of `CC[C@H](C)[C@@H]1NC(=O)[C@H](CC(N)=O)NC(=O)[C@H](C(C)C)NC(=O)[C@H](CCCCN)NC(=O)[C@H]([C@@H](C)CC)NC(=O)[C@H](CCCNC(=N)N)NC(=O)[C@@H](N)CSSC[C@@H](C(=O)O)NC(=O)[C@H](CCC(=O)O)NC(=O)[C@H](CC(C)C)NC(=O)[C@H](CCC(=O)O)NC(=O)[C@H](CC(C)C)NC(=O)[C@H](CCCNC(=N)N)NC(=O)[C@H](CC(C)C)NC(=O)[C@H](CCCNC(=N)N)NC(=O)[C@H](CCCNC(=N)N)NC(=O)[C@H](CO)NC(=O)[C@H](CCCNC(=N)N)NC(=O)[C@H](CC(=O)O)NC(=O)[C@H](CC(=O)O)NC1=O` [SyRC-8] (H-CRIKVNIDDRSRRLRLELEC-OH; disulfide 1-20), the “W3110 MIC” value is greater than 256 µg/mL.
Take `CC[C@H](C)[C@@H]1NC(=O)[C@H](CCCNC(=N)N)NC(=O)[C@H](C(C)C)NC(=O)CNC(=O)[C@H](CCCNC(=N)N)NC(=O)CNC(=O)CNC(=O)[C@H](CC(N)=O)NC(=O)[C@H](CC(=O)O)NC(=O)[C@H](CC(C)C)NC(=O)[C@H](CCCNC(=N)N)NC(=O)[C@H]([C@@H](C)CC)NC(=O)[C@H]([C@@H](C)O)NC(=O)[C@H](CC(C)C)NC(=O)[C@@H](N)CSSC[C@@H](C(=O)O)NC(=O)[C@H](C(C)C)NC(=O)[C@H](CCC(N)=O)NC(=O)[C@H](CC(C)C)NC(=O)[C@H](CO)NC1=O` [SyRA-5] (H-CLTIRLDNGGRGVRISLQVC-OH; disulfide 1-20): the “W3110 MIC” value was greater than 256 µg/mL.
With `CC[C@H](C)[C@@H]1NC(=O)[C@H](CCCCN)NC(=O)[C@H]([C@@H](C)CC)NC(=O)[C@H](CCCNC(=N)N)NC(=O)[C@@H](N)CSSC[C@@H](C(=O)O)NC(=O)[C@H](CCC(N)=O)NC(=O)[C@H](C(C)C)NC(=O)[C@H](CCC(N)=O)NC(=O)[C@H](CC(C)C)NC(=O)[C@H](CCCCN)NC(=O)[C@H](CC(C)C)NC(=O)[C@H](CCCNC(=N)N)NC(=O)[C@H](CCCNC(=N)N)NC(=O)[C@H](CO)NC(=O)CNC(=O)[C@H](CC(=O)O)NC(=O)[C@H](CC(N)=O)NC(=O)[C@H](C(C)C)NC(=O)[C@H](CC(N)=O)NC1=O` [SySA-8] (H-CRIKINVNDGSRRLKLQVQC-OH; disulfide 1-20; N-terminus and C-terminus assumed), the Ec W3110 MIC MH is 256 µg/mL, the Ec W3110 MIC RPMI came out at 256 µg/mL, the “W3110 MIC MH” value came out at 256 µg/mL and the “W3110 MIC RPMI” value was 256 µg/mL.
On to `CC[C@H](C)[C@@H]1NC(=O)[C@H](CCCNC(=N)N)NC(=O)[C@H](C(C)C)NC(=O)[C@@H](N)CSSC[C@@H](C(=O)O)NC(=O)[C@H](C(C)C)NC(=O)[C@H](CCC(N)=O)NC(=O)[C@H](CC(C)C)NC(=O)[C@H]([C@@H](C)O)NC(=O)[C@H](C(C)C)NC(=O)[C@H](CCCCN)NC(=O)[C@H](C(C)C)NC(=O)[C@H](CCCNC(=N)N)NC(=O)[C@H](CCCNC(=N)N)NC(=O)CNC(=O)CNC(=O)[C@H](CC(N)=O)NC(=O)[C@H](CC(N)=O)NC(=O)[C@H](CC(C)C)NC(=O)[C@H](CCCNC(=N)N)NC1=O` [SySA-53] (H-CVRIRLNNGGRRVKVTLQVC-OH; disulfide 1-20; N-terminus and C-terminus assumed), for which the Ec W3110 MIC MH is 32 µg/mL, the Ec W3110 MIC RPMI worked out at 32 µg/mL, the “W3110 MIC MH” value came out at 32 µg/mL and the “W3110 MIC RPMI” value was determined as 32 µg/mL.
As for `CC[C@H](C)[C@@H]1NC(=O)[C@H](CCCNC(=N)N)NC(=O)[C@H](C(C)C)NC(=O)[C@H](CCCNC(=N)N)NC(=O)[C@H](CCCNC(=N)N)NC(=O)[C@H](CCCNC(=N)N)NC(=O)[C@H](CCCNC(=N)N)NC(=O)[C@H](CC(N)=O)NC(=O)[C@H](CC(N)=O)NC(=O)[C@H](C(C)C)NC(=O)[C@H](CCCNC(=N)N)NC(=O)[C@H](C(C)C)NC(=O)[C@H]([C@@H](C)O)NC(=O)[C@H](C(C)C)NC(=O)[C@@H](N)CSSC[C@@H](C(=O)O)NC(=O)[C@H](C(C)C)NC(=O)[C@H](CCC(N)=O)NC(=O)[C@H](C(C)C)NC(=O)[C@H](CO)NC1=O` [SySA-11] (H-CVTVRVNNRRRRVRISVQVC-OH; disulfide 1-20; N-terminus and C-terminus assumed), the Ec W3110 MIC MH worked out at 64 µg/mL, the Ec W3110 MIC RPMI came out at 16 µg/mL, the “W3110 MIC MH” value stood at 64 µg/mL and the “W3110 MIC RPMI” value turned out to be 16 µg/mL.
In the case of `CC(C)C[C@@H]1NC(=O)CNC(=O)[C@H](CCCNC(=N)N)NC(=O)[C@H](CCCNC(=N)N)NC(=O)[C@H](CCCNC(=N)N)NC(=O)[C@H](CC(N)=O)NC(=O)[C@H](CC(N)=O)NC(=O)[C@H](CC(C)C)NC(=O)[C@H](CCCNC(=N)N)NC(=O)[C@H](C(C)C)NC(=O)[C@H](CCCNC(=N)N)NC(=O)[C@H](C(C)C)NC(=O)[C@@H](N)CSSC[C@@H](C(=O)O)NC(=O)[C@H](C(C)C)NC(=O)[C@H](CCC(N)=O)NC(=O)[C@H](CC(C)C)NC(=O)[C@H]([C@@H](C)O)NC(=O)[C@H](C(C)C)NC(=O)[C@H](CCCCN)NC1=O` [SySA-45] (H-CVRVRLNNRRRGLKVTLQVC-OH; disulfide 1-20; N-terminus and C-terminus assumed), the Ec W3110 MIC MH stood at 256 µg/mL, the Ec W3110 MIC RPMI was 32 µg/mL, the “W3110 MIC MH” value came to 256 µg/mL and the “W3110 MIC RPMI” value turned out to be 32 µg/mL.
With `CC(C)C[C@@H]1NC(=O)[C@H](CCCNC(=N)N)NC(=O)[C@H](C(C)C)NC(=O)[C@H](CCCNC(=N)N)NC(=O)[C@H](CC(C)C)NC(=O)[C@@H](N)CSSC[C@@H](C(=O)O)NC(=O)[C@H](C(C)C)NC(=O)[C@H](CCC(N)=O)NC(=O)[C@H](C(C)C)NC(=O)[C@H](CO)NC(=O)[C@H](C(C)C)NC(=O)[C@H](CCCCN)NC(=O)[C@H](C(C)C)NC(=O)CNC(=O)[C@H](CCCNC(=N)N)NC(=O)[C@H](CCCNC(=N)N)NC(=O)[C@H](CCCNC(=N)N)NC(=O)[C@H](CC(N)=O)NC(=O)[C@H](CC(N)=O)NC1=O` [SySA-25] (H-CLRVRLNNRRRGVKVSVQVC-OH; disulfide 1-20; N-terminus and C-terminus assumed), the Ec W3110 MIC MH was determined as 64 µg/mL, the Ec W3110 MIC RPMI came to 8 µg/mL, the “W3110 MIC MH” value was 64 µg/mL and the “W3110 MIC RPMI” value turned out to be 8 µg/mL.
Consider `CC[C@H](C)[C@@H]1NC(=O)[C@H](CCCNC(=N)N)NC(=O)[C@H](C(C)C)NC(=O)[C@@H](N)CSSC[C@@H](C(=O)O)NC(=O)[C@H](C(C)C)NC(=O)[C@H](CCC(N)=O)NC(=O)[C@H](CC(C)C)NC(=O)[C@H](CO)NC(=O)[C@H](C(C)C)NC(=O)[C@H](CCCCN)NC(=O)[C@H](C(C)C)NC(=O)CNC(=O)[C@H](CO)NC(=O)[C@H](CCCNC(=N)N)NC(=O)[C@H](CCCNC(=N)N)NC(=O)[C@H](CC(N)=O)NC(=O)[C@H](CC(N)=O)NC(=O)[C@H](C(C)C)NC(=O)[C@H](CCCNC(=N)N)NC1=O` [SySA-38] (H-CVRIRVNNRRSGVKVSLQVC-OH; disulfide 1-20; N-terminus and C-terminus assumed), for which the Ec W3110 MIC MH was determined as 256 µg/mL, the Ec W3110 MIC RPMI was found to be 8 µg/mL, the “W3110 MIC MH” value is 256 µg/mL and the “W3110 MIC RPMI” value is 8 µg/mL.
On to `CC[C@H](C)[C@@H]1NC(=O)[C@H](CC(N)=O)NC(=O)[C@H]([C@@H](C)CC)NC(=O)[C@H](CCCNC(=N)N)NC(=O)[C@H](C(C)C)NC(=O)[C@H](CCCNC(=N)N)NC(=O)[C@@H](N)CSSC[C@@H](C(=O)O)NC(=O)[C@H](CCC(N)=O)NC(=O)[C@H](CC(C)C)NC(=O)[C@H](CCC(N)=O)NC(=O)[C@H](CC(C)C)NC(=O)[C@H](CCCCN)NC(=O)[C@H](C(C)C)NC(=O)[C@H](CCCNC(=N)N)NC(=O)[C@H](CCCNC(=N)N)NC(=O)[C@H](CCCNC(=N)N)NC(=O)CNC(=O)[C@H](CC(N)=O)NC(=O)[C@H](CC(N)=O)NC1=O` [SySA-7] (H-CRVRININNGRRRVKLQLQC-OH; disulfide 1-20; N-terminus and C-terminus assumed), for which the Ec W3110 MIC MH came to 256 µg/mL, the Ec W3110 MIC RPMI was found to be 32 µg/mL, the “W3110 MIC MH” value was found to be 256 µg/mL and the “W3110 MIC RPMI” value turned out to be 32 µg/mL.
With `CC[C@H](C)[C@@H]1NC(=O)[C@H](CCCNC(=N)N)NC(=O)[C@H](C(C)C)NC(=O)[C@H](CCCNC(=N)N)NC(=O)[C@H](CO)NC(=O)[C@H](CCCNC(=N)N)NC(=O)[C@H](CCCNC(=N)N)NC(=O)[C@H](CC(N)=O)NC(=O)[C@H](CC(N)=O)NC(=O)[C@H](C(C)C)NC(=O)[C@H](CCCNC(=N)N)NC(=O)[C@H]([C@@H](C)CC)NC(=O)[C@H]([C@@H](C)O)NC(=O)[C@H](C(C)C)NC(=O)[C@@H](N)CSSC[C@@H](C(=O)O)NC(=O)[C@H](C(C)C)NC(=O)[C@H](CCC(N)=O)NC(=O)[C@H](CC(C)C)NC(=O)[C@H](CO)NC1=O` [SySA-63] (H-CVTIRVNNRRSRVRISLQVC-OH; disulfide 1-20; N-terminus and C-terminus assumed), the Ec W3110 MIC MH was 256 µg/mL, the Ec W3110 MIC RPMI amounted to 64 µg/mL, the “W3110 MIC MH” value is 256 µg/mL and the “W3110 MIC RPMI” value was 64 µg/mL.
As to `CC[C@H](C)[C@@H]1NC(=O)[C@H](CCCCN)NC(=O)[C@H](CC(C)C)NC(=O)CNC(=O)CNC(=O)[C@H](CCCNC(=N)N)NC(=O)[C@H](CCCNC(=N)N)NC(=O)[C@H](CC(=O)O)NC(=O)[C@H](CC(=O)O)NC(=O)[C@H](C(C)C)NC(=O)[C@H](CCCNC(=N)N)NC(=O)[C@H](C(C)C)NC(=O)[C@H](CCCNC(=N)N)NC(=O)[C@H](C(C)C)NC(=O)[C@@H](N)CSSC[C@@H](C(=O)O)NC(=O)[C@H](C(C)C)NC(=O)[C@H](CCC(N)=O)NC(=O)[C@H](CC(C)C)NC(=O)[C@H](CO)NC1=O` [SyRA-12] (H-CVRVRVDDRRGGLKISLQVC-OH; disulfide 1-20), the “W3110 MIC” value was greater than 256 µg/mL.
